Experimental data taken from patent publication US20120077836A1, “METHODS OF ADMINISTERING (4AR,10AR)-1-N-PROPYL-1,2,3,4,4A,5,10,10A-OCTAHYDROBENZO [G] QUINOLINE-6,7-DIOL AND RELATED COMPOUNDS ACROSS THE ORAL MUCOSA, THE NASAL MUCOSA OR THE SKIN AND PHARMACEUTICAL COMPOSITIONS THEREOF” (priority 2009, published 2012).

Columns and labels:
MPTP/AMPT mouse model = experiment: Superiority model, hypomotility in the MPTP/AMPT mouse model; assay type: in vivo
Method: MPTP (1-methyl-4-phenyl-1,2,3,6-tetrahydropyridine) is a neurotoxin that causes permanent symptoms of Parkinson's disease by killing certain neurons in the substantia nigra of the brain. It is used to study the disease in monkeys and mice. […] Various compounds (all dosed subcutaneously) were tested for their ability to reverse the motility deficits produced in this model.

[1] = tested on: rats with unilateral 6-OHDA lesions; experiment: Rotation response in 6-OHDA rats after buccal delivery; assay type: in vivo, rat
[2] = tested on: rats with unilateral 6-OHDA lesions; experiment: D1/D2 dissection, rotation response in rats with unilateral 6-OHDA lesions; assay type: in vivo, rat; conditions: 6-OHDA rats; for MED (minimum effective dose to induce rotation) / MEDNemonapride (MED to overcome Nemonapride block): dosed SC; for MEDNemonapride (MED to overcome Nemonapride block): * = rotations could not be blocked by SCH23390
Description: Rats weighing 200-250 g were subjected to unilateral 6-OHDA lesions. […] Nemonapride is a D2 antagonist that blocks the D2 receptors, therefore any observed rotations would be dependent upon activity at the D1 receptors.

[3] = tested on: rats with unilateral 6-OHDA lesions; conditions: rat, in vivo, sc
reserpinesed rats = experiment: Reversal of reserpine-induced hypomotility in rats; assay type: in vivo, rat
Method: Rats weighing ca. 200 g were treated with reserpine (5 mg/kg subcutaneously as a solution in 20% aqueous solutol for which pH was adjusted to 4 with methanesulfonic acid). […] Group 1: treated with 20% ethanol in 0.7% aqueous sodium chloride subcutaneously.

human D2 receptor = target: T1, human D2 receptor (Homo sapiens, UniProt P14416); experiment: D2 cAMP assay; assay type: cell-based; conditions: read-out: intrinsic activity (efficacy)
T1 construct: expressed in transfected cells; host or cells: CHO cells
T1 sequence (P14416 whole entry): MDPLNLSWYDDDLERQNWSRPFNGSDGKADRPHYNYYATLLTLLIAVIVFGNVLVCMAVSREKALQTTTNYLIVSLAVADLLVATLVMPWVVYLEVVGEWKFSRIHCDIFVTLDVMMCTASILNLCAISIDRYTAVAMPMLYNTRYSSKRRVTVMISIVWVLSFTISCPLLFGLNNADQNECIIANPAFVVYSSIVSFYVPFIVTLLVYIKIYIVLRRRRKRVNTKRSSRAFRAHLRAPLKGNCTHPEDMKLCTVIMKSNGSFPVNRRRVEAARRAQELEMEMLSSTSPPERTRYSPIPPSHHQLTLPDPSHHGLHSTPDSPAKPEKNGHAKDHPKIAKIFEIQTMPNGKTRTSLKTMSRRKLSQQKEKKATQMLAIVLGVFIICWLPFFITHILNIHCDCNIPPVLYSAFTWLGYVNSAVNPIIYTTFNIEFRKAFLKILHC
Method: The ability of the compounds to either stimulate or inhibit the D2 receptor mediated inhibition of cAMP formation in CHO cells transfected with the human D2 receptor was measured as follows. Cells were seeded in 96 well plates at a concentration of 8000 cells/well 3 days prior to the experiment. On the day of the experiment the cells were washed once in preheated G buffer (1 mM MgCl2, 0.9 mM CaCl2, 1 mM IBMX in PBS) and the assay was initiated by addition of 100 micro-1 of a mixture of 1 micro-M quinpirole, 10 microM forskolin and test compound in G buffer (antagonism) or 10 micro-M forskolin and test compound in G buffer (agonism).

[4] = target: T2, human recombinant D1 receptor (Homo sapiens, UniProt P21728); experiment: D1 cAMP assay; assay type: cell-based; conditions: read-out: intrinsic activity (efficacy)
T2 construct: expressed in transfected cells
T2 sequence (P21728 whole entry): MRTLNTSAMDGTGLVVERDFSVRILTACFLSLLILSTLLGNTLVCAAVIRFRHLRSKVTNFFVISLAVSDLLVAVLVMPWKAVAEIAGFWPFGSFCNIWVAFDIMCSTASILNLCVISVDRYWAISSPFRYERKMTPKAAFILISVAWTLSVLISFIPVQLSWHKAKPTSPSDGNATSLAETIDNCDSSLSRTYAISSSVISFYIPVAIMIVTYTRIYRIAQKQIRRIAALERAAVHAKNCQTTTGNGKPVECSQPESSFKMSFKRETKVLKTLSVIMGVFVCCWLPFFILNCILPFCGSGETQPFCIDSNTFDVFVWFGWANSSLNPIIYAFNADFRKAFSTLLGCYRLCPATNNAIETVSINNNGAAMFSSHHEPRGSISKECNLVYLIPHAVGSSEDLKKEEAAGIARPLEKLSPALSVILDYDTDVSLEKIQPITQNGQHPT
Method: The ability of the compounds to either stimulate or inhibit the D1 receptor mediated cAMP formation in CHO cells stably expressing the human recombinant D1 receptor was measured as follows. Cells were seeded in 96-well plates at a concentration of 11000 cells/well 3 days prior to the experiment.

MPTP treated marmosets = experiment: Anti-parkinsonian effects in MPTP-treated common marmosets; assay type: in vivo, common marmoset; parameters: disability score (120 min) / disability score (180 min) / disability score (240 min) / disability score (300 min) / disability score (360 min) / disability score (420 min) / disability score (60 min): scale not given here
Method: The experiments were conducted using 6 MPTP treated marmosets (2.0 mg/kg daily for up to 5 consecutive days dissolved in sterile 0.9% saline solution). All the animals had previously been treated with L-DOPA (12.5 mg/kg p.o., plus carbidopa 12.5 mg/kg p.o.) administered daily for up to 30 days in order to induce dyskinesia. […] Domperidone was administered 60 min before any of the test compounds. Domperidone is an antidopaminergic drug that suppresses nausea and vomiting. Locomotor activity was assessed using test cages that are comprised of 8 photo-electric switches comprised of 8 infra-red beams which are strategically placed in the cage and interruption of a beam is recorded as one count. […] The assessment of motor disability was performed by a trained observer blinded to the treatment.
The dose chosen for this challenge is at the top of the dose response curve for this drug.

6-OHDA rats = experiment: Reversal of L-DOPA-induced dyskinesias in 6-OHDA rats (AIMS); assay type: in vivo, rat; conditions: after 7 days L-DOPA/Benserazide priming; once daily days 1-10: L-DOPA/Benserazide 6/15 mg/kg SC; compound 10 0.0013 mg/kg SC; pramipexole […] SC
Description: Animals were observed on Days 1, 3 and 5 and AIMS were scored. The day 5 scores were then used to separate the animals into three groups of 6 animals each. Group 1 continued with daily L-DOPA treatment. […] Treatment continued daily for 10 days and the amount of dyskinesia was scored on days 1, 5, 9 and 10.

[5] = Table 4e direct comparison, AMPT 250 mg/kg SC, apomorphine 1 mg/kg SC, pramipexole 1 mg/kg SC, compound 10 0.030 mg/kg SC, controls: vehicle 509, AMPT/vehicle 2

CN1CCc2cccc3c2[C@H]1Cc1ccc(O)c(O)c1-3 [apomorphine, reference compound]
reversal of motility deficits (MPTP/AMPT mouse model; MPTP/AMPT mice, all dosed subcutaneously): restored locomotion in the mice in a dose-dependent manner
activity count (0.5-1.5 h) (MPTP/AMPT mouse model; Table 4b, AMPT 250 mg/kg SC at -1.5 h, 1.0 mg/kg SC, controls: vehicle 694, AMPT/vehicle 1): 912
activity count (0.5-1.5 h) (MPTP/AMPT mouse model; [5]): 904
mean number of rotations over 3 h ([1]; apomorphine 0.1 mg/kg SC, compound 10 0.01 mg/kg buccally): 1123
induction of rotation ([1]; apomorphine subcutaneous, compound 10 buccal): induced rotations
MED (minimum effective dose to induce rotation) [2]: 0.010 mg/kg
MEDNemonapride (MED to overcome Nemonapride block) [2]: 0.030 mg/kg
dyskinesia score (AIMS) [3]: about 65
reversal of reserpine-induced hypomotility (reserpinesed rats; administered subcutaneously): reversed the reserpine-induced hypomotility
activity count (reserpinesed rats; reserpine 5 mg/kg SC 23-24 h before, apomorphine 1 mg/kg SC, compound 10 0.01 mg/kg SC, over 3 hours, controls: vehicle 486, reserpine/vehicle 17): 440
Emax (human D2 receptor): 100%
Emax [4]: 86%

CC(C)C[C@H]1C(=O)N2CCC[C@H]2[C@]2(O)O[C@](NC(=O)[C@@H]3C=C4c5cccc6[nH]c(Br)c(c56)C[C@H]4N(C)C3)(C(C)C)C(=O)N12 [bromocriptine]
activity count (0.5-1.5 h) (MPTP/AMPT mouse model; Table 4d, AMPT 250 mg/kg SC, 1 mg/kg SC, controls: vehicle 336, AMPT/vehicle 16): 25
activity count (0.5-1.5 h) (MPTP/AMPT mouse model; Table 4d, AMPT 250 mg/kg SC, 5 mg/kg SC): 17
activity count (0.5-1.5 h) (MPTP/AMPT mouse model; Table 4d, AMPT 250 mg/kg SC, 10 mg/kg SC): 36

N[C@@H](Cc1ccc(O)c(O)c1)C(=O)O [L-DOPA, reference compound]
disability score (60 min) (MPTP treated marmosets; 12.5 mg/kg PO): 10.0
disability score (120 min) (MPTP treated marmosets; 12.5 mg/kg PO): 2.0
disability score (180 min) (MPTP treated marmosets; 12.5 mg/kg PO): 1.8
disability score (240 min) (MPTP treated marmosets; 12.5 mg/kg PO): 3.2
disability score (300 min) (MPTP treated marmosets; 12.5 mg/kg PO): 5.0
disability score (360 min) (MPTP treated marmosets; 12.5 mg/kg PO): 9.7
disability score (420 min) (MPTP treated marmosets; 12.5 mg/kg PO): 11.0
effect on locomotor activity and motor disability (MPTP treated marmosets; L-DOPA 12.5 mg/kg p.o., compound 10 0.001 or 0.01 mg/kg SC): increased locomotor activity and reversed motor disability
dyskinesia score (AIMS) [3]: about 65

CCCN[C@H]1CCc2nc(N)sc2C1 [pramipexole]
activity count (0.5-1.5 h) (MPTP/AMPT mouse model; [5]): 176
MED (minimum effective dose to induce rotation) [2]: 0.1 mg/kg
MEDNemonapride (MED to overcome Nemonapride block) [2]: 1.0 mg/kg
mean AIM score (days 1, 5, 9, 10) (6-OHDA rats): 58

CCCN(CCc1cccs1)[C@H]1CCc2c(O)cccc2C1 [rotigotine]
D1 component in rotation model ([2]; SC): could not be observed
MED (minimum effective dose to induce rotation) [2]: 0.030 mg/kg
MEDNemonapride (MED to overcome Nemonapride block) [2]: 0.30 mg/kg
